According to publication PMC3871636 (PLoS ONE, 2013):

Columns and labels:
CYP3A4 (C64/C468 mutant) = CYP3A4 (C64/C468 mutant) (Homo sapiens, UniProt P08684, form not given/S18F); experiment: Ligand-induced spin shift, absorbance titration; type: binding; details: human, purified CYP3A4(C64/C468) mutant protein, pH 7.4
Description: (§1) All absorbance and fluorescence assays (including the time-resolved fluorescence measurements) were performed at a protein concentration ≤1 µM at 25°C with continuous stirring. Absorbance spectra were recorded with an S2000 rapid scanning CCD spectrometer (Ocean Optics). Ligand binding assays were done in 100 mM Na-Hepes buffer, pH 7.4, containing 0.5 mM EDTA.
(§2) Absorbance spectra obtained in titration experiments were analyzed with a principal component analysis (PCA) procedure complemented with least-square approximation of the principal vectors with a combination of the prototypical spectra of the CYP3A4 low-spin, high-spin and Type II-substrate-bound ferric CYP3A4 P450 states as described, [31].
(§3) When fitting the results of titration experiments, where the changes in the monitored signal A S (fraction of the enzyme in the high-spin state, intensity or the lifetime of the donor phosphorescence at a given substrate concentration) were assumed to be proportional to [ES], this equation was complemented with the offset A 0 and the scaling factor A max to yield the following relationship: [drawing 5] (Eq.5)

[1] = molecular target: CYP3A4 (C377/C468 mutant) (Homo sapiens, UniProt P08684, form not given/S18F); experiment: Ligand-induced spin shift, absorbance titration; type: binding; details: human, purified CYP3A4(C377/C468) mutant protein, pH 7.4
Sequence of CYP3A4 (C377/C468 mutant) (P08684 13-503 S18F, form open): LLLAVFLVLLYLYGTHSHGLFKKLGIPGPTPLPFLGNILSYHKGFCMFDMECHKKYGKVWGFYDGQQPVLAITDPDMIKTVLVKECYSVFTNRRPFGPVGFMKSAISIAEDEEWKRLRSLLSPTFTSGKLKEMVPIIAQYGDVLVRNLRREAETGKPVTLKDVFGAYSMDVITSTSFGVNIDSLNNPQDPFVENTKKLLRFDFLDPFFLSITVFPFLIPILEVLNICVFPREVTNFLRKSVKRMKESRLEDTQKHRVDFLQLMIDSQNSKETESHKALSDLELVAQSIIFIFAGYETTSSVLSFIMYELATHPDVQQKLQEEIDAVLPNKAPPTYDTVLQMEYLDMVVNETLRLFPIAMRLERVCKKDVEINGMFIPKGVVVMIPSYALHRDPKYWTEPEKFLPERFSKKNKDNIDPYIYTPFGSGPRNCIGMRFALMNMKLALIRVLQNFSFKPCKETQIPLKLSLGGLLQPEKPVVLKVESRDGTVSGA
Description: as §1, §2, §3

[2] = molecular target: CYP3A4 (double-labeled C64/C468-ER/DY) (Homo sapiens, UniProt P08684, form not given/S18F); experiment: Ligand-induced spin shift, absorbance titration; type: binding; details: human, purified double-labeled CYP3A4 C64/C468-ER/DY protein, pH 7.4
Sequence of CYP3A4 (double-labeled C64/C468-ER/DY) (P08684 13-503 S18F, form open): as above
Description: as §1, §2, §3

[3] = molecular target: T1, double-labeled CYP3A4 (C64/C468)-DY/ER (Homo sapiens, UniProt P08684, S18F, form not given); experiment: Steady-state LRET titration (delayed emission); type: binding
T1 sequence (P08684 13-503 S18F, form open): as above
Description: as §1
(§4) Fluorescence-based ligand binding assays were done under anaerobic conditions. Anaerobiosis was achieved using an oxygen-scavenging system consisting of protecatechuate-3,4-dioxygenase (0.5 units/ml) and 5 mM protocatechuic acid. The steady state and time-resolved phosphorescence measurements were performed with the use of a Cary Eclipse fluorescence spectrophotometer (Varian/Agilent Technologies). The excitation wavelength was set to 540 nm. Spectra were taken from 650 to 860 nm with 100 µs delay.
(§5) Quantitative interpretation of LRET results was also based on the use of PCA applied to a series of emission spectra normalized on integral intensity. […] Intensity of the donor and acceptor fluorescence obtained in this way were used in determination of the efficiency of steady-state LRET using the equation [drawing 1] (Eq.1) where I ad is emission intensity of the acceptor, I da is the residual donor emission in the presence of acceptor (I da), Φ a and Φ d are the quantum yield of the fluorescence of acceptor and the quantum yield of the phosphorescence of donor, respectively.
(§6) Distances were calculated using the equation: [drawing 3] (Eq.3) where R 0 is the Förster distance, and R is the distance between the donor and acceptor. R 0 was calculated with the use of PhotoChemCad software. In these calculations, we used the values of the orientation factor (κ^2) and the refractive index (n) of 0.667 and 1.4, respectively.
as §3

[4] = molecular target: CYP3A4 (double-labeled (C64/C468)-DY/ER) (Homo sapiens, UniProt P08684, form not given/S18F); experiment: Steady-state LRET titration (delayed emission); type: binding; details: human, purified double-labeled CYP3A4 C64/C468-DY/ER protein, pH 7.4
Sequence of CYP3A4 (double-labeled (C64/C468)-DY/ER) (P08684 13-503 S18F, form open): as above
Description: as §1, §4, §5, §6, §3

[5] = molecular target: CYP3A4 (double-labeled (C64/C468)-ER/DY) (Homo sapiens, UniProt P08684, form not given/S18F); experiment: Steady-state LRET titration (delayed emission); type: binding; details: human, purified double-labeled CYP3A4 C64/C468-ER/DY protein, pH 7.4
Sequence of CYP3A4 (double-labeled (C64/C468)-ER/DY) (P08684 13-503 S18F, form open): as above
Description: as §1, §4, §5, §6, §3

[6] = molecular target: T2, double-labeled CYP3A4 (C64/C468)-ER/DY (Homo sapiens, UniProt P08684, S18F, form not given); experiment: Steady-state LRET titration (delayed emission); type: binding
T2 sequence (P08684 13-503 S18F, form open): as above
Description: as §1, §4, §5, §6, §3

[7] = molecular target: T3, double-labeled CYP3A4 C377/C468-DY/ER (Homo sapiens, UniProt P08684, S18F, form not given); experiment: Steady-state LRET titration (delayed emission); type: binding; details: Table S2; protein C377/C468-ER/DY; same ligand concentrations
T3 sequence (P08684 13-503 S18F, form open): as above
Description: as §1, §4, §5, §6, §3

[8] = molecular target: T4, double-labeled CYP3A4 C64/C121-DY/ER (Homo sapiens, UniProt P08684, A121C/C239S/C377S/C468A/C98S/S18F); experiment: Steady-state LRET titration (delayed emission); details: Table S2; protein C64/C121-ER/DY; same ligand concentrations
T4 sequence (P08684 with tags, fused parts or gaps S18F/C98S/A121C/C239S/C377S/C468A limits assumed): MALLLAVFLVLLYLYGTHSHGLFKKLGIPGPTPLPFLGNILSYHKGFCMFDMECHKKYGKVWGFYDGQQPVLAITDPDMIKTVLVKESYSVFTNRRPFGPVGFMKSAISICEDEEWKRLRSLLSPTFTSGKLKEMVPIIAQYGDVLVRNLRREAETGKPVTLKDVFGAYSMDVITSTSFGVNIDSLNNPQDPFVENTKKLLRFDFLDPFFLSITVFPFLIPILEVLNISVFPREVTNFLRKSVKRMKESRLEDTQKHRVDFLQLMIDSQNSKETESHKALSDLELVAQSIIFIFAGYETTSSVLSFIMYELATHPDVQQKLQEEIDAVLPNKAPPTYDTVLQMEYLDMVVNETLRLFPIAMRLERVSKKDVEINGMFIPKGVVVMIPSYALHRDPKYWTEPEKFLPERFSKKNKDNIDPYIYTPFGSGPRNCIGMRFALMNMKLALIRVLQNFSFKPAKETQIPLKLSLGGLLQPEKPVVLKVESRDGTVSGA
Description: as §1, §4, §5, §6, §3

[9] = molecular target: T1, double-labeled CYP3A4 (C64/C468)-DY/ER; experiment: Time-resolved LRET (phosphorescence lifetime measurements)
From the text: (§7) The excitation wavelength was set to 540 nm.

[10] = molecular target: T2, double-labeled CYP3A4 (C64/C468)-ER/DY; experiment: as above
From the text: as §7

[11] = molecular target: T3, double-labeled CYP3A4 C377/C468-DY/ER; experiment: as above
From the text: as §7

[12] = molecular target: T4, double-labeled CYP3A4 C64/C121-DY/ER; experiment: as above
Description: as §1, §4
The treatment of the time-resolved decay traces was performed using a bi-exponential approximation. The efficiency of time-resolved LRET was calculated using the equation [drawing 2] (Eq.2)
In this equation τda and τd designate the average lifetime of the excited state of the donor in the presence and absence of the acceptor, respectively. These average lifetimes are determined as τ = α1τ1+α2τ2, where τ1,2 and α1,2 stay for the lifetime and the relative amplitude of each of the two exponential terms. In our calculations of the lifetime in double-labeled C64/C468, C377/C468 and C64/C121 proteins we used the lifetimes of phosphorescence measured with the respective proteins labeled with ERIA at a label:protein ratio 2∶1 as the estimates of τd.
as §6

[13] = Table S2, C64/C468-DY/ER, same ligand concentrations
[14] = Table S2, C64/C468-ER/DY, same ligand concentrations
[15] = Table S1, (C64/C468)-DY/ER, same ligand concentrations
[16] = Table S1, (C64/C468)-ER/DY, same ligand concentrations
[17] = Table S1, protein (C377/C468)-ER/DY, same ligand concentrations
[18] = Table S2, protein C377/C468-ER/DY, same ligand concentrations
[19] = Table S1, protein (C64/C121)-ER/DY, same ligand concentrations
[20] = Table S2, protein C64/C121-ER/DY, same ligand concentrations

Sequence of CYP3A4 (C64/C468 mutant) (P08684 13-503 S18F, form open): as the sequence (P08684 13-503 S18F, form open) above

## C[C@]12CC[C@H]3[C@@H](CCC4=CC(=O)CC[C@@]43C)[C@@H]1CC[C@@H]2O [Testosterone, testosterone]
CYP3A4 (C64/C468 mutant)
  Kd: 39 ± 10 µM
[1]
  Kd: 51 ± 8 µM
[2]
  Kd: 38 ± 6 µM
[3]; (C64/C468)-DY/ER
  ΔR (change in interprobe distance), steady-state fluorescence: 5.5±1.9 Å
[3]; [13]
  R (interprobe distance with ligand), steady-state measurements: 40.4 ± 1.9 Å
  ΔR, steady-state measurements: 5.5 ± 1.9 Å
[4]
  Kd: 16.4 ± 3.5 µM
[5]
  Kd: 22.8 ± 3.6 µM
[6]; (C64/C468)-ER/DY
  ΔR (change in interprobe distance), steady-state fluorescence: 3.1±1.0 Å
[6]; [14]
  R (interprobe distance with ligand), steady-state measurements: 42.2 ± 1.0 Å
  ΔR, steady-state measurements: 3.1 ± 1.0 Å
[7]
  R (interprobe distance with ligand), steady-state measurements: 46.7 ± 0.7 Å
  ΔR, steady-state measurements: 2.0 ± 0.7 Å
[8]
  R (interprobe distance with ligand), steady-state measurements: 43.9 ± 0.5 Å
  ΔR, steady-state measurements: 1.3 ± 0.5 Å
[9]; Table S1, (C64/C468)-DY/ER, 1-PB 40 µM, ANF 100 µM, BCT 2.5 µM, cholesterol 100 µM, testosterone 100 µM, bi-exponential fit
  τ1 (phosphorescence decay time with ligand): 69 ± 1 µs
[9]; [15]
  F1 (fraction of first exponential): 39 ± 8%
  τ2 (phosphorescence decay time with ligand): 247 ± 2 µs
  τav (average phosphorescence lifetime with ligand): 176 ± 2 µs
[9]; [13]
  R (interprobe distance with ligand), lifetime measurements: 41.6 ± 0.3 Å
  ΔR, lifetime measurements: 4.8 ± 0.3 Å
[10]; (C64/C468)-ER/DY, nearly-saturating ligand: ANF 100 µM, bromocriptine 2.5 µM, cholesterol 50 µM, testosterone 100 µM
  ΔR (change in interprobe distance), lifetime measurements: 4.5±0.5 Å
[10]; Table S1, (C64/C468)-ER/DY, 1-PB 40 µM, ANF 100 µM, BCT 2.5 µM, cholesterol 100 µM, testosterone 100 µM, bi-exponential fit
  τ1 (phosphorescence decay time with ligand): 67 ± 6 µs
[10]; [16]
  F1 (fraction of first exponential): 48 ± 2%
  τ2 (phosphorescence decay time with ligand): 267 ± 11 µs
  τav (average phosphorescence lifetime with ligand): 171 ± 4 µs
[10]; [14]
  R (interprobe distance with ligand), lifetime measurements: 40.8 ± 0.6 Å
  ΔR, lifetime measurements: 4.5 ± 0.6 Å
[11]; Table S1, protein (C377/C468)-ER/DY, 1-PB 40 µM, ANF 100 µM, BCT 2.5 µM, cholesterol 100 µM, testosterone 100 µM, bi-exponential fit
  τ1 (phosphorescence decay time with ligand): 42 ± 9 µs
[11]; [17]
  F1 (fraction of first exponential): 26 ± 7%
  τ2 (phosphorescence decay time with ligand): 193 ± 5 µs
  τav (average phosphorescence lifetime with ligand): 152 ± 12 µs
[11]; [18]
  R (interprobe distance with ligand), lifetime measurements: 45.3 ± 3.0 Å
  ΔR, lifetime measurements: 8.5 ± 3.0 Å
[12]; Table S1, protein (C64/C121)-ER/DY, 1-PB 40 µM, ANF 100 µM, BCT 2.5 µM, cholesterol 100 µM, testosterone 100 µM, bi-exponential fit
  τ1 (phosphorescence decay time with ligand): 66 ± 9 µs
[12]; [19]
  F1 (fraction of first exponential): 38 ± 4%
  τ2 (phosphorescence decay time with ligand): 228 ± 23 µs
  τav (average phosphorescence lifetime with ligand): 165 ± 9 µs
[12]; [20]
  R (interprobe distance with ligand), lifetime measurements: 36.9 ± 0.7 Å
  ΔR, lifetime measurements: 1.9 ± 0.7 Å
